Laboratory results: patent US9683014B2, “Dipeptide mimetics of NGF and BDNF neurotrophins” (UCHREZHDENIE ROSSIISKOI AKADEMII MEDITSYNSKIKH NAUK …, priority 2009, dated 2017)
Where two headings read alike, the source gives them in different places. Marks after values point to notes of the source that are not given here.

What was measured:
[1] = system: rats with ischemic cerebral infarction; conditions: 1 mg/kg i.p. x3
HT-22 cells = system: HT-22 cells
Procedure: The determination of cell viability was carried out by MTT test. MTT is a water soluble tetrazolium salt of yellow color which readily permeates cells. In living cells, MTT is converted into water insoluble formazan crystals of violet color. At the end of an experiment the growth medium was replaced with an MTT solution (0.5 mg/ml) and incubated for 30 min at 37° C. and 5% CO2. The MTT solution was then removed from the wells and DMSO was added to dissolve the formazan precipitate. Then the optical density was measured using a Multiscan (Thermo) spectrophotometer at a wavelength of 600 nm.

HT-22 neuronal cell line = assay: Viability of HT-22 neuronal cell line without damaging factors (MTT test); assay type: cell-based, mouse; conditions: added at plating and every 24 h for 10 days, control 0.283 ± 0.039
Procedure: The rat adrenal […] pheochromocytoma cell line PC12 was obtained from the Cell Culture Museum, RAN Institute of Molecular Genetics. The immortalized mouse hippocampal cell line HT-22 was a gift from Prof. F. Viegant, Utrecht University, the Netherlands.
The cells were grown in DMEM medium containing 5% FBS and 2 mM L-glutamine. The cells were incubated at 37° C. and 5% CO2. The growth medium was changed at 24 hours after inoculation and every 3 days thereafter. The cells were re-plated every week into culture flasks with a total area of 75 cm^2.
All types of cells were plated in DMEM medium.

[2] = system: rats with ischemic cerebral infarction
[3] = system: rats with ischemic cerebral infarction; conditions: 7 days after surgery; 1 mg/kg i.p. x3
rats [4] = system: rats
Procedure: The experiments were conducted on white male outbred rats weighing 250-280 g. Haloperidol (1.0 mg/kg i.p.), a D1/D2 dopamine receptor blocker, was used to induce catalepsy. The intensity of catalepsy was assessed by measuring the time during which the animal maintained an assumed posture. The measurements were performed 60 minutes after the haloperidol injection. The test compound was administered intraperitoneally at selected doses (0.01, 0.1, 1.0 and 5.0 mg/kg) 24 hours prior to haloperidol. Control animals were treated with an equivalent volume of distilled water. Statistical data treatment was carried out using the exact Fisher test.

[5] = system: rats with bilateral ligation of the carotid artery; conditions: 1 mg/kg i.p.
Procedure: (§1) The experiments were conducted on male outbred rats weighing 350-420 g. The test compound was administered intraperitoneally at a dose of 1 mg/kg. On day 1 the animals were given the first injection of the test compound. 24 hours later (day 2) they underwent surgery for a bilateral ligation of the carotid artery. Following another 24 h (day 3) the animals were given the second injection of the test compound. 96 hours later (day 7) they were given the third injection of the test compound. Following another 24 h (day 8) the animals were tested in an open field test (Jackson H. F., Broadhurst P. L. The effects of parachlorophenylalanine and stimulus intensity on open-field test measures in rats. Neuropharmacology, 1982, 21, 1279-1282). On the next day (day 9) they were allowed to explore new objects (a modification of the test described in Ennaceur A., Delacour J. A new one-trial test for neurobiological studies of memory in rats. 1: Behavioral data. Behavioral Brain Research, 1988, 31, 47-59). On day 11 the animals were given the fourth injection of the test compound. The animals were sacrificed by decapitation 120 hours after the last injection of the test compound (day 16).
(§2) The rats were distributed into 3 groups (n≧8 for each group) at random. Group 1 (sham-operated) comprised animals that were anesthetized followed by a sham operation and subsequently received 4 injections of physiological saline according to the experimental set-up; Group 2 (ligation) comprised animals that were anesthetized followed by surgery for a bilateral ligation of the carotid artery and subsequently received 4 injections of saline according to the experimental set-up; Group 3 (ligation+test compound) comprised animals that were anesthetized followed by surgery for a bilateral ligation of the carotid artery and subsequently received 4 injections of the test compound according to the experimental set-up.

[6] = system: rat cerebral cortex cells; conditions: 1 mg/kg i.p., 4 injections; cells isolated day 16; FIG. 2.9
Procedure: as §1, §2

rats [7] = conditions: 1.0 mg/kg i.p. 24 h prior to apomorphine (pretreatment); FIG. 2.10
Procedure: The control group was treated with distilled water according to the same regimen.

PC12 cell line = assay: Cellular model of Parkinson's disease (MPTP, MTT test); assay type: cell-based, rat
Procedure: To produce a model for Parkinson's disease, MPTP was used at a final concentration of 1 mM (Shimoke K., Chiba H. Nerve growth factor prevents 1-methyl-[…]-1,2,3,6-tetrahydropyridine-induced cell death via the Akt pathway by suppressing caspase-3-like activity using PC12 cells: relevance to therapeutic application for Parkinson's disease. J. Neurosci. Res. 2001, 63, 402-409). MPTP was added to the cell growth medium containing 1% FBS at 24 hours after passage. The peptides were added to the cell growth medium concurrently with MPTP or 24 h before MPTP. Cell viability was determined at 24 h using an MTT test.

Wistar rats = conditions: 1.0 mg/kg i.p. 24 h prior to scopolamine 1.0 mg/kg s.c.; FIG. 2.11
Procedure: Male Wistar rats weighing 190-220 g were used for this experiment. The test compound was administered intraperitoneally at a dose of 1.0 mg/kg at 24 hours prior to the scopolamine injection (1.0 mg/kg s.c.). The control group was treated with distilled water according to the same regimen. Scopolamine was injected 60 min before placing the animals in a T-shaped maze. Following a further 120 min the animals were subjected to testing in accordance with the original protocol (Deacon R. M. J., Rawlins J. N. P. T-maze alternation in the rodent. Nature Protocols, 2006, 1(1), 7-12).

With `NCCCC[C@H](NC(=O)[C@H](CCC(=O)O)NC(=O)CCC(=O)O)C(=O)NCCCCCCNC(=O)[C@H](CCCCN)NC(=O)[C@H](CCC(=O)O)NC(=O)CCC(=O)O` [GK-2, bis-(N-monosuccinyl-glutamyl-lysine) hexamethylenediamide] the limb-placing test score ([1]; day 4 post-ischemia, ischemic rats 3.00±0.38, intact 14) was 5.90±0.62, the limb-placing test score ([1]; day 7 post-ischemia, ischemic rats 4.46±0.40, intact 14) was 7.67±0.75 and the “Optical density (MTT)” value (HT-22 cells; 10^−8M, 24 h prior to glutamate, control 0.178 ± 0.010, glutamate 0.145 ± 0.013) was 0.179 ± 0.007^. The “protective effect against glutamate cytotoxicity” value (HT-22 cells; added 24 hours prior to glutamate) was “protective effect”, the “Optical density (MTT)” value (HT-22 neuronal cell line; 10^−5M) was 0.357 ± 0.051 and the “Optical density (MTT)” value (HT-22 neuronal cell line; 10^−8M) was 0.375 ± 0.063. For the same compound, the “animals with swelling of the affected hemisphere” value ([2]; 1 mg/kg i.p. at 1, 24, 48 h post-ischemia, NMRT day 7, control group 46%) was 9%, the mortality rate ([2]; 1 mg/kg i.p. at 1, 24, 48 h post-ischemia, control also 3) was 3 animals and the ischemic lesion volume ([2]; 1 mg/kg i.p. x3, NMRT day 7, n=12, saline control 266±20) was 222±16 mm^3. For the same compound, the “reduction of lesion volume” value ([2]; 1 mg/kg i.p. x3, versus saline control) was 16.5%, the “reduction in use of the affected limb and simultaneous use of 2 forelimbs” value [3] was “much less pronounced” and the “Intensity of catalepsy (% of control)” value (rats [4]; 0.01 mg/kg i.p. 24 h prior to haloperidol 1.0 mg/kg i.p., measured 60 min after haloperidol) was 14* % of control. For the same compound, the “Intensity of catalepsy (% of control)” value (rats [4]; 0.1 mg/kg i.p. 24 h prior to haloperidol) was 98 % of control, the “Intensity of catalepsy (% of control)” value (rats [4]; 1.0 mg/kg i.p. 24 h prior to haloperidol) was 25* % of control and the “Intensity of catalepsy (% of control)” value (rats [4]; 5.0 mg/kg i.p. 24 h prior to haloperidol) was 13* % of control. The “horizontal motor activity in the open field test” value ([5]; day 8, ligation reduced it, FIG. 2.5) was “restored it to the level found in the sham-operated rats”, the “vertical motor activity in the open field test” value ([5]; day 8, ligation reduced it, FIG. 2.6) was “restored it to the level found in the sham-operated rats” and the “total object smelling time and first-minute object exploration” value ([5]; day 9, FIGS. 2.7, 2.8) was “not different from the sham-operated rats”. The “viability of the cortical cells (MTT)” value [6] was “enhanced”, the “intensity of apomorphine-induced oral stereotypy” value (rats [7]) was “enhanced the intensity” and the “protective effect against MPTP” value (PC12 cell line; added 24 hours prior to MPTP 1 mM) was “active at both 10^−5 M and 10^−8 M”. For the same compound, the “protective effect against MPTP” value (PC12 cell line; added concurrently with MPTP 1 mM, 10^−5 M and 10^−8 M tested) was “only at 10^−5 M” and the “scopolamine-induced working memory impairment (spontaneous alternation, T-maze)” value (Wistar rats) was “could prevent”.
